The IC50 is the midpoint of a concentration-inhibition curve.

Structures are written as SMILES. Read-outs that look alike come from different tables or passages of the source.

This is an account of results in patent US20240368209A1, “GEMCITABINE ANTICANCER DERIVATIVE AND ANTICANCER PHARMACEUTICAL USE” (ASCENTAWITS PHARMACEUTICALS, LTD., priority 2021, published 2024).

For the experiment, the system named is H460 non-small cell lung cancer human tumor cell line. Kind of experiment: In vitro human tumor cell line cytotoxicity (proliferation) assay on H460, CTG, with or without AST-3021. It is filed as cell-based. To be noted: for IC50: Homo sapiens. As for the experimental part:
In vitro human tumor cell line cytotoxicity assay was used.
In vitro proliferation data on the H460 non-small cell lung cancer human tumor cell line (cell line which highly expresses AKR1C3) is reported below in the compound table.
IC50 values were obtained with the following steps:
Specifically, exponentially growing cells were seeded at a density of 2×10^3 cells/100 μL/well in a 96-well plate and incubated at 37° C. in 5% CO2, 95% air and 100% relative humidity for 24 hours. The test compound was administered alone: 24 hours after cell plating, the compound acted alone, 99 μL of growth medium per well was added, and 1 μL of the compound prepared at 200× was added, and the plate was shaken gently to ensure even mixing, then placed into an incubator of 37° C., 5% CO2. After further cultivation for 72 hours, the number of live cells was detected using CTG. The CTG detection method was as follows: the cell plate to be tested was placed at room temperature to equilibrate for 30 minutes, and 100 μL of medium per well was discarded. 25 μL of CTG reagent (CellTiter-Glo® kit) per well was added, and the plate was placed in a high-speed shaker to oscillate for 2 minutes, and placed at room temperature in the dark for 30 minutes. The chemiluminescence signal value was read using a multimode microplate reader, with a read time of 1000 ms.
Similarly, in order to further verify that the compounds were activated by human AKR1C3 (aldosterone reductase family 1 member C3), the effect of some of the compounds on the proliferation of H460 cancer cells was tested with pretreatment with a specific AKR1C3 enzyme inhibitor AST-3021 (3 μM). The detailed experimental procedure was as follows: 24 hours after cell plating, 98 μL of growth medium per well was added, and 1 μL of 200×compound AST-3021 was added to each well, and the plate was shaken gently to ensure even mixing, and then placed into an incubator; after 2 hours, 1 μL of the test compound prepared at 200× was added, and the plate was shaken gently to ensure even mixing and then laced into an incubator of 37° C., 5% CO2. The inhibitor used was compound 36, i.e.
in Flanagan et al., Bioorganic and Medicinal Chemistry (2014), page 962-977, and is referred to as AST-3021 in this invention. The values measured in this case are values corresponding to +AST-3021 IC50 (nM) in Table 1.
The value corresponding to +AST-3021 IC50 (nM) divided by the value corresponding to IC50 (nM) is the specific activation ratio. The relative magnitude of the specific activation ratio can be used to evaluate whether this compound is a cytotoxic compound activated by human AKR1C3 (aldosterone reductase family 1 member C3): when the specific activation ratio is less than 1, it is considered that the compound is not activated by human AKR1C3 (aldosterone reductase family 1 member C3); when the specific activation ratio is greater than 1, it is considered that the compound is activated by human AKR1C3 (aldosterone reductase family 1 member C3), and the higher the value, the higher the activation degree and the selectivity of AKR1C3.

[1] abbreviates: NCI-H460, compound alone, 72 hours, read-out: IC50.
[2] abbreviates: NCI-H460, pretreatment with AKR1C3 inhibitor AST-3021 (3 μM), read-out: +AST-3021 IC50.

Regarding `CCNP(=O)(OCc1ccc([N+](=O)[O-])c(Oc2ccc(C(=O)N3CCCCC3)cc2)c1)OCC1OC(n2ccc(N)nc2=O)C(F)(F)C1O` (stereo not drawn) [Compound H13], the “specific activation ratio (+AST-3021 IC50/IC50)” value (“specific activation ratio” for short) is 9.4. For the same molecule, under setting [1], the half-maximal inhibitory concentration (IC50) worked out at 0.393 µM. Also, under setting [2], the IC50 worked out at 3.68 µM.

For the molecule `CCNP(=O)(OCc1ccc([N+](=O)[O-])c(Oc2ccc(C(=O)N3CCC(C(F)(F)F)CC3)cc2)c1)OCC1OC(n2ccc(N)nc2=O)C(F)(F)C1O` (stereo not drawn) [Compound H14], the “specific activation ratio” value is given as 1.9. The IC50 under setting [1] was found to be 1.77 µM. The IC50 under setting [2] is 3.3 µM.

With `CCNP(=O)(OCc1ccc([N+](=O)[O-])c(Oc2cccc(C(=O)N3CCCCC3)c2)c1)OCC1OC(n2ccc(N)nc2=O)C(F)(F)C1O` (stereo not drawn) [Compound H15], the “specific activation ratio” value came out at 5.0. Besides, the IC50 under setting [1] is 0.486 µM. Further, the IC50 under setting [2] stood at 2.42 µM.

On to `CCNP(=O)(OCc1ccc([N+](=O)[O-])c(Oc2cccc(C(=O)N3CCC(C(F)(F)F)CC3)c2)c1)OCC1OC(n2ccc(N)nc2=O)C(F)(F)C1O` (stereo not drawn) [Compound H16], for which the “specific activation ratio” value worked out at 8.9. The IC50 under setting [1] amounted to 0.377 µM. In addition, under setting [2], the 50% inhibitory concentration (IC50) amounted to 3.37 µM.

Take `Nc1ccn(C2OC(COP(=O)(NC3CCCCC3)OCc3ccc([N+](=O)[O-])c(Oc4ccc(-c5ccc(F)cc5)c(F)c4)c3)C(O)C2(F)F)c(=O)n1` (stereo not drawn) [Compound H17]: the “specific activation ratio” value worked out at 27.2. Moreover, the IC50 under setting [1] worked out at 0.397 µM. Besides, the half-maximal inhibitory concentration (IC50) under setting [2] is 10.8 µM.

Take `Nc1ccn(C2OC(COP(=O)(NC3CCCCC3)OCc3ccc([N+](=O)[O-])c(Oc4ccc(C(F)(F)F)cc4)c3)C(O)C2(F)F)c(=O)n1` (stereo not drawn) [Compound H18]: the “specific activation ratio” value stood at 3.7. Moreover, the IC50 under setting [1] was 0.461 µM. In addition, under setting [2], the half-maximal inhibitory concentration (IC50) came to 1.7 µM.

As for `CCNP(=O)(OCc1ccc([N+](=O)[O-])c(Oc2ccc3ncccc3c2)c1)OCC1OC(n2ccc(N)nc2=O)C(F)(F)C1O` (stereo not drawn) [Compound H19], the “specific activation ratio” value is 3.4. The IC50 under setting [1] is 0.15 µM. Further, under setting [2], the half-inhibitory concentration (IC50) was 0.51 µM.

Turning to `CCNP(=O)(OCc1ccc([N+](=O)[O-])c(Oc2ccc3nc(C)sc3c2)c1)OCC1OC(n2ccc(N)nc2=O)C(F)(F)C1O` (stereo not drawn) [Compound H20], the “specific activation ratio” value was found to be 6.2. For the same molecule, the IC50 under setting [1] was 0.232 µM. The IC50 under setting [2] came out at 1.43 µM.

With `CCNP(=O)(OCC1OC(n2ccc(N)nc2=O)C(F)(F)C1O)OC(C)c1ccc([N+](=O)[O-])c(Oc2ccc(-c3ccc(F)cc3)c(F)c2)c1` (stereo not drawn) [Compound H21], the “specific activation ratio” value was determined as 34.8. Also, the half-inhibitory concentration (IC50) under setting [1] is 0.127 µM. Further, the half-maximal inhibitory concentration (IC50) under setting [2] was determined as 4.41 µM.

On to `CC(OP(=O)(NCCBr)OCC1OC(n2ccc(N)nc2=O)C(F)(F)C1O)c1ccc([N+](=O)[O-])c(Oc2ccc(-c3ccc(F)cc3)c(F)c2)c1` (stereo not drawn) [Compound H22], for which the “specific activation ratio” value turned out to be 19.2. In addition, the half-inhibitory concentration (IC50) under setting [1] was found to be 0.124 µM. For the same molecule, the IC50 under setting [2] was determined as 2.37 µM.

Turning to `CNP(=O)(OCC1OC(n2ccc(N)nc2=O)C(F)(F)C1O)OC(C)c1ccc([N+](=O)[O-])c(Oc2ccc(C(F)(F)F)cc2)c1` (stereo not drawn) [Compound H23], the “specific activation ratio” value came out at 29.8. Under setting [1], the IC50 stood at 0.379 µM. In addition, the half-maximal inhibitory concentration (IC50) under setting [2] turned out to be 11.3 µM.

Take `CCNP(=O)(OCC1OC(n2ccc(N)nc2=O)C(F)(F)C1O)OC(C)c1ccc([N+](=O)[O-])c(Oc2ccc(C(=O)N3CCCCC3)cc2)c1` (stereo not drawn) [Compound H24]: the “specific activation ratio” value is listed as 19.1. In addition, the IC50 under setting [1] is 1.12 µM. Moreover, the half-maximal inhibitory concentration (IC50) under setting [2] is 21.4 µM.

`CCNP(=O)(OCC1OC(n2ccc(N)nc2=O)C(F)(F)C1O)OC(C)c1ccc([N+](=O)[O-])c(Oc2cccc(C(=O)N3CCCCC3)c2)c1` (stereo not drawn) [Compound H25]: the “specific activation ratio” value worked out at 9.6. Under setting [1], the half-inhibitory concentration (IC50) was determined as 0.515 µM. Also, under setting [2], the IC50 came to 4.94 µM.

As to `CCNP(=O)(OCc1ccc([N+](=O)[O-])c(Oc2ccc(-c3ccc(F)cn3)cc2)c1)OCC1OC(n2ccc(N)nc2=O)C(F)(F)C1O` (stereo not drawn) [Compound H28], the “specific activation ratio” value was 20.4. For the same molecule, under setting [1], the half-maximal inhibitory concentration (IC50) turned out to be 0.233 µM. For the same molecule, under setting [2], the IC50 came to 4.76 µM.

Turning to `Nc1ccn(C2OC(COP(=O)(NC3CCCC3)OCc3ccc([N+](=O)[O-])c(Oc4ccc(-c5ccc(F)cc5)c(F)c4)c3)C(O)C2(F)F)c(=O)n1` (stereo not drawn) [Compound H29], the “specific activation ratio” value came to 47.17. Also, the concentration for half-maximal inhibition (IC50) under setting [1] came out at 0.0823 µM. The IC50 under setting [2] turned out to be 3.88 µM.

In the case of `CC(C)NP(=O)(OCc1ccc([N+](=O)[O-])c(Oc2cccc(C(=O)N3CCCCC3)c2)c1)OCC1OC(n2ccc(N)nc2=O)C(F)(F)C1O` (stereo not drawn) [Compound H35], the “specific activation ratio” value amounted to 8.6. Further, the IC50 under setting [1] amounted to 0.454 µM. Also, under setting [2], the IC50 was determined as 3.9 µM.

With `CC(C)NP(=O)(OCc1ccc([N+](=O)[O-])c(Oc2ccc(C(=O)N3CCCCC3)cc2)c1)OCC1OC(n2ccc(N)nc2=O)C(F)(F)C1O` (stereo not drawn) [Compound H36], the “specific activation ratio” value stood at 3.1. Besides, the IC50 under setting [1] worked out at 0.382 µM. Also, under setting [2], the IC50 is 1.17 µM.

In the case of `CC(C)NP(=O)(OCc1ccc([N+](=O)[O-])c(Oc2ccc(-c3ccc(F)cc3)cc2)c1)OCC1OC(n2ccc(N)nc2=O)C(F)(F)C1O` (stereo not drawn) [Compound H38], the “specific activation ratio” value came to 507.6. Besides, the 50% inhibitory concentration (IC50) under setting [1] amounted to 0.0652 µM. In addition, under setting [2], the IC50 turned out to be 33.1 µM.

As for `CC(C)NP(=O)(OCc1ccc([N+](=O)[O-])c(Oc2ccc(-c3ccc(C(F)(F)F)cc3)cc2)c1)OCC1OC(n2ccc(N)nc2=O)C(F)(F)C1O` (stereo not drawn) [Compound H39], the “specific activation ratio” value came out at 12.7. The concentration for half-maximal inhibition (IC50) under setting [1] was 2.18 µM. The IC50 under setting [2] was 27.7 µM.

For the molecule `CC(C)NP(=O)(OCc1ccc([N+](=O)[O-])c(Oc2ccc(-c3ccc(Cl)cc3)cc2)c1)OCC1OC(n2ccc(N)nc2=O)C(F)(F)C1O` (stereo not drawn) [Compound H40], the “specific activation ratio” value amounted to 86.9. The half-inhibitory concentration (IC50) under setting [1] was found to be 0.194 µM. The IC50 under setting [2] is 16.9 µM.

Take `CC(C)NP(=O)(OCc1ccc([N+](=O)[O-])c(Oc2ccc(-c3ccc(Cl)cc3)c(F)c2)c1)OCC1OC(n2ccc(N)nc2=O)C(F)(F)C1O` (stereo not drawn) [Compound H42]: the “specific activation ratio” value came out at 333.5. Moreover, the IC50 under setting [1] was 0.0571 µM. The IC50 under setting [2] amounted to 19 µM.

Take `CC(C)NP(=O)(OCc1ccc([N+](=O)[O-])c(Oc2ccc(-c3ccccc3F)cc2)c1)OCC1OC(n2ccc(N)nc2=O)C(F)(F)C1O` (stereo not drawn) [Compound H43]: the “specific activation ratio” value worked out at 257.8. Further, the half-maximal inhibitory concentration (IC50) under setting [1] is 0.06 µM. For the same molecule, the IC50 under setting [2] came to 15.5 µM.

As for `CC(C)NP(=O)(OCc1ccc([N+](=O)[O-])c(Oc2ccc(-c3cccc(F)c3)cc2)c1)OCC1OC(n2ccc(N)nc2=O)C(F)(F)C1O` (stereo not drawn) [Compound H44], the “specific activation ratio” value turned out to be 336.1. Further, the IC50 under setting [1] amounted to 0.0513 µM. For the same molecule, under setting [2], the concentration for half-maximal inhibition (IC50) worked out at 17.3 µM.
